# Laboratory results reported in article PMC5962642, “Dynamic imaging of adaptive stress response pathway activation for prediction of drug induced liver injury” (Archives of Toxicology, 2018).
# “Also recorded” adds a separate entry of the source.
# Columns and labels:
# [1] = tested on: CHOP-GFP (ER stress/UPR response); assay: HepG2 CHOP-GFP BAC reporter, live cell confocal imaging (ER stress/UPR); assay type: cell-based, Human; conditions: HepG2 BAC-GFP, 24 h live imaging, 1-100 C-max
# [2] = ref livertox.nih.gov database; cited from earlier work
# [3] = tested on: ICAM1-GFP (NF-κB-mediated inflammatory signaling); assay: HepG2 ICAM1-GFP BAC reporter, TNFα-induced, live cell confocal imaging; assay type: cell-based, Human; conditions: for modulation of TNFα-induced ICAM1-GFP response: HepG2 BAC-GFP, 8 h compound then TNFα 10 ng/mL, 24 h live imaging, 1-100 C-max
# Description: Human hepatoma HepG2 cells were acquired from ATCC (clone HB8065). HepG2 Srxn1, DDIT3 (CHOP), CDKN1A (p21) and ICAM1 BAC GFP reporter cell lines were previously established and characterized (Wink et al. [2017]). […] The cell lines were used between passage 5 and 25. For live cell imaging, the cells were seeded in Greiner black μ-clear 384 wells plates, at 8000 cells per well. […] All imaging was similar as previously described^5. […] Directly after TNFα treatment the live cell imaging was started. Quantitative image analysis was performed with CellProfiler version 2.1.1 ([…] et al. [2011]) with an in house developed CellProfiler module implementing the watershed masked algorithm for segmentation (Yan and Verbeek [2012]; Wink et al. [2017]). Image analysis results were stored as HDF5 files. Data analysis, quality control and graphics were performed using the in house developed R package h5CellProfiler (manuscript in preparation). For each reporter hourly intensity levels of the GFP signal, the nuclear Hoechst33342 intensity levels and at 24 h the PI staining were measured at the single cell level. In addition, cell numbers, nuclei size and cell motility were measured. GFP intensity cell population means were calculated. In addition, for each plate the cell population mean GFP intensity of the DMSO treated cells was calculated to determine background control values. Per plate, the single cells that had values above the 2X mean, 3X mean were counted resulting in GFP positive fraction measures. For ICAM1, the background control values consisted of DMSO conditions treated with TNFα, and the single cells with values above, as well as below background values were counted. […] Linear regression was applied with respect to time to quantify treatment effects on a plate-to-plate basis to quantify cell speed, nuclear size, Hoechst nuclear intensity and cell numbers. […] The maximum values over time of the scaled intensity levels and positive GFP fractions were selected for the concentration response curves. These values were fit to a four parameter log-logistic model using the drc package (Ritz et al. [2015]). BMC values were calculated as the concentration at which + 0.25 (and - 0.25 for ICAM1) absolute increase from the initial response values occurred (Fig. 5a).
# [4] = C-max obtained from FDA or literature; ref per compound (FDA, Dailymed, Xu, O’Brien, Khetani, Regenthal, Gustafsson, Dawson, Ogutu, Patel, Schmidt, Ravic, Keisu, Hu, Wagner); cited from earlier work
# [5] = tested on: p21-GFP (p53-mediated DNA damage-related response); assay: HepG2 p21-GFP BAC reporter, live cell confocal imaging (DNA damage); assay type: cell-based, Human; conditions: 24 h live imaging, 1-100 C-max
# Description: (§1) Human hepatoma HepG2 cells were acquired from ATCC (clone HB8065). HepG2 Srxn1, DDIT3 (CHOP), CDKN1A (p21) and ICAM1 BAC GFP reporter cell lines were previously established and characterized (Wink et al. [2017]). HepG2 BAC GFP reporters were maintained and exposed to drugs in DMEM high glucose supplemented with 10% (v/v) FBS, 25 U/mL penicillin and 25 µg/mL streptomycin. The cell lines were used between passage 5 and 25. For live cell imaging, the cells were seeded in Greiner black µ-clear 384 wells plates, at 8000 cells per well.
# Accumulation of GFP levels, propodium iodide (PI) and Hoechst staining was monitored using a Nikon TiE2000 confocal laser microscope (lasers 540, 488 and 408 nm), equipped with an automated stage and perfect focus system at 37 °C with humidified atmosphere and 5% CO2/air mixture. All imaging was similar as previously described^5. […]
# Quantitative image analysis was performed with CellProfiler version 2.1.1 (Kamentsky et al. [2011]) with an in house developed CellProfiler module implementing the watershed masked algorithm for segmentation (Yan and Verbeek [2012]; Wink et al. [2017]). […] For each reporter hourly intensity levels of the GFP signal, the nuclear Hoechst33342 intensity levels and at 24 h the PI staining were measured at the single cell level. In addition, cell numbers, nuclei size and cell motility were measured.
# GFP intensity cell population means were calculated. In addition, for each plate the cell population mean GFP intensity of the DMSO treated cells was calculated to determine background control values. Per plate, the single cells that had values above the 2X mean, 3X mean were counted resulting in GFP positive fraction measures. For ICAM1, the background control values consisted of DMSO conditions treated with TNFα, and the single cells with values above, as well as below background values were counted. […]
# [6] = ref Chen et al. [2016], cited from earlier work; for DILI con. (DILI-concern labeling): FDA DILI labeling; for Hepa. (hepatotoxicity class): FDA labeling in eight classes of hepatotoxicity
# [7] = tested on: Srxn1-GFP (oxidative stress); assay: HepG2 Srxn1-GFP BAC reporter, live cell confocal imaging (oxidative stress); assay type: cell-based, Human; conditions: HepG2 BAC-GFP, 24 h live imaging, 1-100 C-max
# Description: as §1
# Accumulation of GFP levels, propodium iodide (PI) and Hoechst staining was monitored using a Nikon TiE2000 confocal laser microscope (lasers 540, 488 and 408 nm), equipped with an automated stage and perfect focus system at 37 °C with humidified atmosphere and 5% CO2/air mixture. All imaging was similar as previously described^5. Each 384-well plate contained one reporter cell line, which was exposed to all the compounds used in the screen at one certain concentration (1, 5, 10, 50 or 100 Cmax); for each concentration at least two replicates were imaged per reporter cell line. For the ICAM1-GFP reporter experiments, cells were first exposed for 8 h to compound only; next, TNFα was added to all wells, up to a final concentration of 10 ng/mL. Directly after TNFα treatment the live cell imaging was started.
# Quantitative image analysis was performed with CellProfiler version 2.1.1 (Kamentsky et al. [2011]) with an in house developed CellProfiler module implementing the watershed masked algorithm for segmentation (Yan and Verbeek [2012]; Wink et al. [2017]). Image analysis results were stored as HDF5 files. Data analysis, quality control and graphics were performed using the in house developed R package h5CellProfiler (manuscript in preparation). For each reporter hourly intensity levels of the GFP signal, the nuclear Hoechst33342 intensity levels and at 24 h the PI staining were measured at the single cell level. In addition, cell numbers, nuclei size and cell motility were measured.
# GFP intensity cell population means were calculated. In addition, for each plate the cell population mean GFP intensity of the DMSO treated cells was calculated to determine background control values. Per plate, the single cells that had values above the 2X mean, 3X mean were counted resulting in GFP positive fraction measures. For ICAM1, the background control values consisted of DMSO conditions treated with TNFα, and the single cells with values above, as well as below background values were counted. Due to the non-symmetric distribution of ICAM1 cell population GFP intensities, the interquartile range (IQR) was used to count the number of cells 1.5, 2 and 3 times above and below the TNFα IQR control values (Supplemental Fig. 1).
# The maximum values over time of the scaled intensity levels and positive GFP fractions were selected for the concentration response curves. These values were fit to a four parameter log-logistic model using the drc package (Ritz et al. [2015]). BMC values were calculated as the concentration at which + 0.25 (and − 0.25 for ICAM1) absolute increase from the initial response values occurred (Fig. 5a).
Compound,CHOP-GFP reporter response [1],Metab (metabolic potential) [2],modulation of TNFα-induced ICAM1-GFP response [3],Cmax [4] [µM],p21-GFP reporter response [5],DILI con. (DILI-concern labeling) [6],Hepa. (hepatotoxicity class) [6],Srxn1-GFP reporter response [7],Srxn1-GFP reporter response ([7]; listed as mercaptopurine),modulation of TNFα-induced ICAM1-GFP response ([3]; listed as mercaptopurine),"point-of-departure (PoD) for ICAM-GFP response relative to onset of SRXN1-GFP response ([3]; peak response, concentration series 1-100 C-max)"
CN1CCN(C2=Nc3cc(Cl)ccc3Nc3ccccc32)CC1 [Clozapine],CHOP-GFP activation,YES,strong ICAM1-GFP suppression,2.44,,,,,,,
COc1cc([C@@H]2c3cc4c(cc3[C@@H](O[C@@H]3O[C@@H]5CO[C@@H](C)O[C@H]5[C@H](O)[C@H]3O)[C@H]3COC(=O)[C@H]23)OCO4)cc(OC)c1O [Etoposide],,YES,,,strong inducers,,,,,,
Sc1ncnc2nc[nH]c12 [Mercaptopurine],increased,YES,increased,0.48,increased,Most-DC,8,increased,relatively strong activation; also recorded: mild Srxn1-GFP and ICAM1-GFP activation,relatively strong activation; also recorded: mild Srxn1-GFP and ICAM1-GFP activation,at a lower C-max
C[C@](N)(Cc1ccc(O)c(O)c1)C(=O)O [Methyldopa],,YES,inhibited,18.9,increased,Most-DC,8,increased,,,
CCc1nn(CCCN2CCN(c3cccc(Cl)c3)CC2)c(=O)n1CCOc1ccccc1 [Nefazodone],CHOP-GFP activation,YES,strong ICAM1-GFP suppression,3.95,,Most-DC,8,,,,
O=C1CN(/N=C/c2ccc([N+](=O)[O-])o2)C(=O)N1 [Nitrofurantoin],CHOP-GFP activation,YES,strong ICAM1-GFP suppression,6,,Most-DC,8,,,,
